This note sets out measurements from patent publication US20240124470A1, “FIVE-MEMBERED RING DERIVATIVE AND MEDICAL USE THEREOF” (SICHUAN HAISCO PHARMACEUTICAL CO., LTD., priority 2020, published 2024).

One test addresses T1, CYP2C19 (Homo sapiens, UniProt P33261).
T1 construct: pre-incubated with the human liver microsome solutions containing 5 enzyme mixed substrates; from tissue; host or cells: human liver microsomes
Briefly: Cytochrome P450 isoenzyme inhibition test, human liver microsomes: CYP2C19. It counts as in vitro ADME. The settings on record: human liver microsomes 0.1 mg/mL; read-out: IC50, inhibitory activity on CYP2C19. As for the experimental part: (§1) 9. Cytochrome P450 Isoenzyme Inhibition Test Experimental objective: The inhibitory effect of the test compound on the activity of human liver microsomal cytochrome P450 isoenzyme (CYP1A2, CYP2C19, CYP2D6 and CYP3A4) was determined. Experimental operation: The test compound at an incubation concentration of 0, 0.03, 0.1, 0.3, 1, 3, 10, 30 and 100 μM was pre-incubated with the human liver microsome solutions containing 5 enzyme mixed substrates (liver microsome concentration: 0.1 mg/mL) in a water bath at 37° C. for 10 min, respectively, and then a coenzyme factor (NADPH) was added to start the reaction. After incubation in a water bath at 37° C. for 10 min, the reaction was terminated by adding glacial acetonitrile solution containing an internal standard, shaken for 1 min, centrifuged at 4° C. and 10,000 rpm for 10 min, and the supernatant was taken for LC/MS/MS analysis. The amount of metabolites produced by each CYP enzyme substrate was detected. The activity of each CYP isoenzyme was reflected by the production rate of each metabolite. […]

The target of the next test is T2, CYP1A2 (Homo sapiens, UniProt P05177).
T2 construct: pre-incubated with the human liver microsome solutions containing 5 enzyme mixed substrates; from tissue; host or cells: human liver microsomes
T2 sequence (P05177 1-516): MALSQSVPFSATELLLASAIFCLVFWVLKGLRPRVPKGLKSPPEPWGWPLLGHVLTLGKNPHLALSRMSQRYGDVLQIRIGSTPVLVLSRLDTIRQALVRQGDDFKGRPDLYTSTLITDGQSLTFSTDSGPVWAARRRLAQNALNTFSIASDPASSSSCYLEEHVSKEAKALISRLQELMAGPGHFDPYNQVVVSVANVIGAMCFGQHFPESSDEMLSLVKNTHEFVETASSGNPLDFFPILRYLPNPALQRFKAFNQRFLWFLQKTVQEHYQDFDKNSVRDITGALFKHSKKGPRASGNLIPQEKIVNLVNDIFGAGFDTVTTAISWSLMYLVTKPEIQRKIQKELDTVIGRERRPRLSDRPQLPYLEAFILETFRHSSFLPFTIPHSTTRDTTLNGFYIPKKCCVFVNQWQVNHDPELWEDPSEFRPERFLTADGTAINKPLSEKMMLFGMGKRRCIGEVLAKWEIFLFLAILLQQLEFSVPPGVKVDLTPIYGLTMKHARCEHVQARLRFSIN
Nature of the test: Cytochrome P450 isoenzyme inhibition test, human liver microsomes: CYP1A2. The class given is in vitro ADME. Conditions: human liver microsomes 0.1 mg/mL; read-out: IC50, inhibitory activity on CYP1A2. Here is the method:
as §1

pIC50: −log10 of the molar value.

T1 sequence (P33261 whole entry): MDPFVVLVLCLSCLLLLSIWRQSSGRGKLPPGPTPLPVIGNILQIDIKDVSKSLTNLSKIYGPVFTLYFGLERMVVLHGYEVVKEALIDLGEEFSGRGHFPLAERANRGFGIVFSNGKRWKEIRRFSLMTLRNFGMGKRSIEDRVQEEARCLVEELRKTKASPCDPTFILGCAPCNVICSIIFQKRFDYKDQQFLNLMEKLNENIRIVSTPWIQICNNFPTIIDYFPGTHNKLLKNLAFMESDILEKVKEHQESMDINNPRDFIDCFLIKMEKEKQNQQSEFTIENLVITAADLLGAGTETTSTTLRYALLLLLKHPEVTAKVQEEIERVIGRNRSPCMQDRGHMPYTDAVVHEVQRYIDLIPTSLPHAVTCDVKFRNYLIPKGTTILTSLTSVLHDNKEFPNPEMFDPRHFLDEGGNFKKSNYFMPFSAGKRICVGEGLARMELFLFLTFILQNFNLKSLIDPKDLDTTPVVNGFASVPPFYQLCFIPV

Turning to `N#Cc1ccc(COc2cccc(-c3ccc(Cc4nc5sc(C(=O)O)cc5n4C[C@@H]4CCO4)c(F)c3)n2)c(F)c1` [Compound 6, (S)-2-(4-(6-((4-cyano-2-fluorobenzyl)oxy)pyridin-2-yl)-2-fluorobenzyl)-1-(oxetan-2-ylmethyl)-1H-thieno[2,3-d]imidazole-5-carboxylic acid], the pIC50 at CYP2C19 and at CYP1A2 was less than 4.30 in each case.
